Assay results: ChEMBL document CHEMBL4346677, “Compounds based on 5-(perylen-3-ylethynyl)uracil scaffold: High activity against tick-borne encephalitis virus and non-specific activity against enterovirus A” (Eur J Med Chem, 2019)
Activity calls are given as the source filed them. The calls are words filed in the database; no cut-off is given here.

Tests used:
[1] = system: Poliovirus 1; assay: Antiviral activity against poliovirus type 1 sabin 1; type: functional, organism-based
[2] = Cytotoxicity against PEK cells assessed as reduction in cell viability after 7 days by microscopic method; type: cell-based, Sus scrofa; details: pig
[3] = Cytotoxicity against human RD cells assessed as reduction in cell viability after 7 days by microscopic method; type: cell-based
[4] = system: Vero; assay: Cytotoxicity against African green monkey Vero cells assessed as formation of syncytium-like patterns of cells at 50 uM after 7 days by microscopic method; type: cell-based; details: chlorocebus sabaeus, 168 h
[5] = system: Tick-borne encephalitis virus; assay: Antiviral activity against TBEV Absettarov infected in PEK cells assessed as plaque reduction preincubated for 1 hr followed by overlaying with 1.26% methylcellulose and measured after 6 days by gentian violet staining-based assay; type: functional, organism-based
[6] = Cytotoxicity against PEK cells assessed as formation of syncytium-like patterns of cells at 50 uM after 7 days by microscopic method; type: cell-based, Sus scrofa; details: pig, 168 h
[7] = system: RD; assay: Cytotoxicity against human RD cells assessed as formation of syncytium-like patterns of cells at 50 uM after 7 days by microscopic method; type: cell-based; details: 168 h
[8] = Cytotoxicity against PEK cells assessed as reduction in metabolic activity at >20 uM after 24 hrs by CellTiter-Blue assay; type: ADME, cell-based, Sus scrofa; details: pig
[9] = Cytotoxicity against human RD cells assessed as reduction in cell viability after 24 hrs by microscopic method; type: cell-based
[10] = Cytotoxicity against African green monkey Vero cells assessed as reduction in cell viability after 24 hrs by microscopic method; type: cell-based; details: chlorocebus sabaeus
[11] = system: RD; assay: Cytotoxicity against human RD cells assessed as reduction in metabolic activity at >20 uM after 24 hrs by CellTiter-Blue assay; type: ADME, cell-based
[12] = system: Echovirus; assay: Antiviral activity against Echovirus 30 isolate 48461; type: functional, organism-based
[13] = system: Vero; assay: Cytotoxicity against African green monkey Vero cells assessed as reduction in metabolic activity at >20 uM after 24 hrs by CellTiter-Blue assay; type: ADME, cell-based; details: chlorocebus sabaeus
[14] = system: Enterovirus A71; assay: Antiviral activity against Enterovirus A71 isolate 46973 infected in human RD cells assessed as reduction in virus induced cytopathic effect preincubated with viral suspension for 1 hr followed by cell addition measured after 5 to 7 days; type: functional, organism-based; details: Enterovirus A, isolate 46973, RD; read-out: EC50
[15] = Cytotoxicity against African green monkey Vero cells assessed as reduction in cell viability after 7 days by microscopic method; type: cell-based; details: chlorocebus sabaeus
[16] = Cytotoxicity against PEK cells assessed as reduction in cell viability after 24 hrs by microscopic method; type: cell-based, Sus scrofa; details: pig
[17] = Selectivity index, ratio of CC50 for African green monkey Vero cells to EC50 for HSV-1 infected in Vero cells; type: toxicity, cell-based; details: read-out: Ratio CC50/EC50
[18] = system: Murid betaherpesvirus 1; assay: Antiviral activity against mCMV infected in mouse NIH3T3 cells assessed as reduction in virus induced cytopathogenicity; type: functional, organism-based; details: Murid betaherpesvirus 1, NIH3T3
[19] = system: Hepatitis C virus; assay: Antiviral activity against HCV JFH1 infected in human Huh7.5 cells assessed as NS3 expression by western blot analysis; type: functional, organism-based, Hepacivirus hominis; details: JFH1, Huh7.5
[20] = system: Human alphaherpesvirus 2; assay: Antiviral activity against HSV-2 infected in African green monkey Vero cells assessed as plaque reduction preincubated for 10 mins inocula removed after 1 hr followed by overlaying with 2% methylcellulose and measured after 1 to 2 days by crystal violet staining based assay; type: functional, organism-based; details: Human alphaherpesvirus 2, Vero
[21] = Selectivity index, ratio of CC50 for MDCK cells to EC50 for H1N1 infected in MDCK cells; type: toxicity, cell-based; details: dog, read-out: Ratio CC50/EC50
[22] = Selectivity index, ratio of CC50 for African green monkey Vero cells to EC50 for Sindbis infected in Vero cells; type: toxicity, cell-based; details: read-out: Ratio CC50/EC50
[23] = system: Influenza A virus; assay: Antiviral activity against influenza A virus H1N1 infected in dog MDCK cells assessed as plaque reduction preincubated for 10 mins inocula removed after 1 hr followed by overlaying with 0.8% agarose and measured after 1 to 2 days by crystal violet staining based assay; type: functional, organism-based
[24] = Selectivity index, ratio of CC50 for mouse NIH3T3 cells to EC50 for mCMV infected in NIH3T3 cells; type: toxicity, cell-based; details: read-out: Ratio CC50/EC50
[25] = system: Human alphaherpesvirus 1; assay: Antiviral activity against HSV-1 infected in African green monkey Vero cells preincubated with virus for 5 mins; type: functional, organism-based; details: Human alphaherpesvirus 1, Vero
[26] = Selectivity index, ratio of CC50 for African green monkey Vero cells to EC50 for VSV infected in Vero cells; type: toxicity, cell-based; details: read-out: Ratio CC50/EC50
[27] = system: Vesicular stomatitis virus; assay: Antiviral activity against VSV infected in African green monkey Vero cells assessed as plaque reduction preincubated for 10 mins inocula removed after 1 hr followed by overlaying with 2% methylcellulose and measured after 1 to 2 days by crystal violet staining based assay; type: functional, organism-based
[28] = Selectivity index, ratio of CC50 for African green monkey Vero cells to EC50 for HSV-2 infected in Vero cells; type: toxicity, cell-based; details: read-out: Ratio CC50/EC50
[29] = system: Influenza A virus; assay: Antiviral activity against influenza A virus H3N2 infected in dog MDCK cells assessed as plaque reduction preincubated for 10 mins inocula removed after 1 hr followed by overlaying with 0.8% agarose and measured after 1 to 2 days by crystal violet staining based assay; type: functional, organism-based
[30] = system: Sindbis virus; assay: Antiviral activity against Sindbis virus infected in African green monkey Vero cells assessed as plaque reduction preincubated for 10 mins inocula removed after 1 hr followed by overlaying with 2% methylcellulose and measured after 1 to 2 days by crystal violet staining based assay; type: functional, organism-based
[31] = Selectivity index, ratio of CC50 for MDCK cells to EC50 for H3N2 infected in MDCK cells; type: toxicity, cell-based; details: dog, read-out: Ratio CC50/EC50
[32] = Selectivity index, ratio of CC50 for human Huh7.5 cells to EC50 for HCV JFH1 infected in Huh7.5 cells; type: toxicity, cell-based; details: read-out: Ratio CC50/EC50

SMILES: CC(C)(CO)[C@@H](O)CNC(=O)Cn1cc(C#Cc2ccc3c4cccc5cccc(c6cccc2c63)c54)c(=O)[nH]c1=O
- Activity [1]: inactive
- CC50 at 168 h [2]: > 50 µM
- CC50 at 168 h [3]: 76 µM
- Activity [4]: Toxic
- EC50 [5]: 19 nM
- Activity [6]: Toxic
- Activity [7]: Toxic
- Activity [8]: Non-Toxic
- CC50 at 24 h [9]: 76 µM
- CC50 at 24 h [10]: 38 µM
- Activity [11]: Toxic
- Activity [12]: inactive
- Activity [13]: Non-Toxic
- EC50 [14]: 108 µM
- CC50 at 168 h [15]: > 50 µM
- CC50 at 24 h [16]: > 50 µM

SMILES: O=c1[nH]c(=O)n([C@H]2C[C@H](O)[C@@H](CO)O2)cc1C#Cc1ccc2c3cccc4cccc(c5cccc1c52)c43
- selectivity ratio [17]: > 3000
- EC50 [18]: 2 to 283 nM
- EC50 [19]: 2 to 283 nM
- EC50 [20]: 2 to 283 nM
- selectivity ratio [21]: > 3000
- selectivity ratio [22]: > 3000
- EC50 [23]: 2 to 283 nM
- selectivity ratio [24]: > 3000
- EC50 [25]: 48 nM
- selectivity ratio [26]: > 3000
- EC50 [27]: 2 to 283 nM
- selectivity ratio [28]: > 3000
- EC50 [29]: 2 to 283 nM
- EC50 [30]: 2 to 283 nM
- selectivity ratio [31]: > 3000
- selectivity ratio [32]: > 3000

SMILES: O=C(Cn1cc(C#Cc2ccc3c4cccc5cccc(c6cccc2c63)c54)c(=O)[nH]c1=O)NCCCCO
- Activity [1]: inactive
- CC50 at 168 h [2]: > 50 µM
- CC50 at 168 h [3]: 81 µM
- Activity [4]: Toxic
- EC50 [5]: 20 nM
- Activity [6]: Toxic
- Activity [7]: Toxic
- Activity [8]: Non-Toxic
- CC50 at 24 h [9]: 76 µM
- CC50 at 24 h [10]: > 50 µM
- Activity [11]: Toxic
- Activity [12]: inactive
- Activity [13]: Non-Toxic
- EC50 [14]: 56 µM
- CC50 at 168 h [15]: > 50 µM
- CC50 at 24 h [16]: > 50 µM

SMILES: O=c1[nH]c(=O)n([C@@H]2O[C@H](CO)[C@@H](O)[C@@H]2O)cc1C#Cc1ccc2c3cccc4cccc(c5cccc1c52)c43
- Activity [1]: inactive
- selectivity ratio [17]: > 3000
- EC50 [18]: 2 to 283 nM
- EC50 [19]: 2 to 283 nM
- CC50 at 168 h [2]: > 50 µM
- Activity [4]: Toxic
- EC50 [5]: 21 nM
- EC50 [20]: 2 to 283 nM
- selectivity ratio [21]: > 3000
- Activity [6]: Toxic
- Activity [7]: Toxic
- selectivity ratio [22]: > 3000
- EC50 [23]: 2 to 283 nM
- selectivity ratio [24]: > 3000
- EC50 [25]: 2 to 283 nM
- Activity [12]: inactive
- selectivity ratio [26]: > 3000
- EC50 [27]: 2 to 283 nM
- CC50 at 24 h [16]: > 50 µM
- selectivity ratio [28]: > 3000
- EC50 [29]: 2 to 283 nM
- EC50 [30]: 2 to 283 nM
- selectivity ratio [31]: > 3000
- selectivity ratio [32]: > 3000
